These results are taken from patent publication US11879142B2, “Bioactive peptide molecules discovered by a combination of bioinformatics technique and chemical synthesis” (Purdue Research Foundation, priority 2021, dated 2024).

Molecules are shown by their SMILES. Non-standard residues stand in square brackets, D forms with d. Residues, ends and D or L forms follow the SMILES beside them. dOrn = NCCC[C@@H](N)C(=O)O

The test system of one data set is ESKAPE pathogens. The data set can be described thus: CLSI microbroth dilution antibacterial assay. It counts as cell-based. As for the experimental part: Bioactivity testing. Initial compounds were tested for activity against antibiotic sensitive and antibiotic resistant ESKAPE pathogens at concentrations varying between 0.5 and 32 μg/mL using the CLSI microbroth dilution assay.^47 Any well with greater than 90% death was considered a hit.
(§1) Bacterial Strains. All strains used in this study except the Bacillus strain and the colistin resistant E. coli strains were obtained from Professor Paul Hergenrother (UIUC). The Bacillus strain was obtained from Professor William Metcalf (UIUC). The colistin resistant E. coli strains (AR Bank Number 0346, 0349, and 0350) were obtained from the CDC AR Isolate bank). E. coli ATCC 25922 (wild type, WT) BAA-2469 (resistant, R), colistin resistant E. coli, K pneumonia ATCC 27736 (WT) and BAA-2146 (R), A. baumannii ATCC 19606 (WT) and KB349 (R), and P. aeruginosa PAO1 (WT) and PA1000 (R) were grown on Mueller Hinton Broth 2 (Sigma Aldrich). S. aureus ATCC 29213 (WT) and NRS3 (R), Enterococcus species ATCC 19433 (WT) and 5235 (R), and B. subtilis 6633 (WT) were maintained on Bacto Brain Heart Infusion.
Antibacterial activity analysis. […] Testing was performed as previously described.10 Turbidity (OD600) of the wells was determined using a SpectraMax iD3 platereader (Molecular Devices). For the compounds that hit during initial screens, minimum inhibitory concentrations were determined. […]

Data set [1] concerns Colistin-resistant bacteria. The data set can be described thus: CLSI microbroth dilution antibacterial assay, colistin-resistant strains. It counts as cell-based, E. coli.
Excerpt: as §1
Antibacterial activity analysis. Antibacterial activity analysis for all bacteria was performed using the microdilution broth method as outlined by the Clinical and Laboratory Standards Institute (CLSI).9 Mueller Hinton Broth 2 (MH, Sigma-Aldrich, 90922) was used for all testing. Testing was performed as previously described.10 Turbidity (OD600) of the wells was determined using a SpectraMax iD3 platereader (Molecular Devices). For the compounds that hit during initial screens, minimum inhibitory concentrations were determined. A minimum of three biological replicates were performed. […]

Data set [2] relates to A549 non-small cell lung cancer cell line. As to the kind of experiment: Alamar blue viability assay. It counts as cell-based, human. To be noted: 16 ug/mL, 48 hours. As for the experimental part: Anticancer Testing. A549 non-small cell lung cancer cells (ATCC CCL-185) were obtained directly from ATCC and used within 30 passages. A549 cells were maintained in RPMI 1640 medium supplemented with 10% fetal bovine serum, 100 U/mL penicillin, and 100 ug/mL streptomycin. For anticancer testing, cells were seeded at 2000 cells per well in 96 well plates and allowed to adhere overnight. Cells were then treated with compound at 16 ug/mL (1% DMSO final) or vehicle control for 48 hours. Viability was assessed using Alamar Blue. Specifically, resazurin (Sigma Aldrich, R7017) was dissolved at 440 μM in sterile PBS. 20 μL was then added to each well and incubated for 4-8 h at 37° C. Fluorescence was measured using a SpectraMax iD3 platereader (Excitation: 550 nm, Emission 590 nm). Percent death was calculated by subtracting the background from all wells and setting 0% death to vehicle treated controls.

`CC(C)[C@@H]1NC(=O)[C@@H](CCCNC(=N)N)NC(=O)[C@H]([C@@H](C)O)NC(=O)[C@@H](CCCN)NC(=O)[C@H](Cc2ccccc2)NC(=O)[C@@H](Cc2ccccc2)NC1=O` [pNP-43] (cyclo(F[dOrn]T[dR]V[dF])): in the data set on ESKAPE pathogens, the “antibacterial activity (in words)” value is recorded as “activity against several Gram-negative bacteria”. The “susceptibility of colistin-resistant bacteria” value in data set [1] is “resistant”. For the same compound, the “toxicity to A549 cells” value in data set [2] was “no observed hemolytic activity or mammalian cell toxicity”.
